Assay results from patent US8691851B2, “Lanthanide metal complexes useful in treating cancer” (National University of Singapore, priority 2009, dated 2014).

Key:
PTEN, RhoB, MnSOD [1] = details: SHEP-1 and MDA-MB-231 cells, 5 μM and 10 μM, dose-dependent
Protocol: Whole cell lysates were prepared with RIPA lysis buffer containing 10 mM Tris-HCL pH7.4, 30 mM NaCl, 1 mM EDTA, 1% Nonidet P-40, supplemented with 1 mM Na3VO4, 1 μg/ml leupeptin, 1 μg/ml pepstatin A, 1 μg/ml aprotinin and 1 mM PMSF before use. Protein concentration was determined for each sample and equal amounts of protein were boiled for 5 min for other proteins, with 1×SDS sample buffer and resolved by 8% SDS-PAGE. Thereafter, proteins were transferred onto nitrocellulose membrane, blocked for 1 h at room temperature with 5% non-fat milk, and incubated overnight at 4° C. with the primary antibody. After probing with secondary antibody for 1 hr at 25° C., protein bands were detected by using the Supersignal West Pico Chemiluminescence (Pierce). β-actin antibody was used as a loading control.
Referring to FIGS. 14 and 15, SHEP-1 neuroblastoma cells and MDA-MB-231 breast cancer cells were treated with different concentrations of C19H24N3O5S5Pr at 5 μM and 10 μM for 4 hr, 8 hr, 18 hr, 241r, 48 hr and 72 hr. Whole cell extracts were prepared and protein expression was examined by Western Blot analysis. 70 μg of total protein was loaded per lane for each experiment. The levels of protein were determined by using specific primary antibody followed by peroxidise-conjugated secondary antibody and visualization by enhanced chemiluminescence.

PPARγ [2] = details: SHEP1 cells, 0 to 5 uM, 18 hours
Protocol: To determine if C19H24N3O5S5Pr binds to PPARγ, neuroblastoma SHEP1 cells were transiently co-transfected with either empty vector or a DNA-binding mutant of PPARγ, 3×PPPRE luciferase plasmid and renilla plasmid for transfection efficiency. Forty eight hours following transfection, the cells were exposed to increased concentration (0 to 5 uM) of C19H24N3O5S5Pr for 18 hours. PPARγ activity was calculated as luciferase RLU/renilla/μg total protein.

PTEN, RhoB, MnSOD [3] = details: HCT-116 tumors, 100 μg or 200 μg per mouse, 21 days of treatment
Protocol: HCT-116 colorectal tumor cells were grafted onto nude mice. Tumor-bearing mice were then treated with solvent control or different concentrations of (100 μg, 200 μg) C19H24N3O5S5Pr. After 21 days of treatment, the mice were sacrificed, after which tumors were harvested and proteins extracted for Western Blot analysis.

PPARγ [4] = target: T1, PPARγ (Homo sapiens, UniProt P37231); test: pPPREx3-TKLuc reporter with PPAR-γ short-hairpin RNA silencing (Method 1); format: cell-based; set-up: endogenous in cells; host or cells: SHSY5Y, SHEP1 / SHEP-1 (neuroblastoma); MDA-MB-231, T47D (breast cancer); details: SHEP-1 cells, 5 uM and 10 uM, 18 hr
T1 sequence (P37231 1-505): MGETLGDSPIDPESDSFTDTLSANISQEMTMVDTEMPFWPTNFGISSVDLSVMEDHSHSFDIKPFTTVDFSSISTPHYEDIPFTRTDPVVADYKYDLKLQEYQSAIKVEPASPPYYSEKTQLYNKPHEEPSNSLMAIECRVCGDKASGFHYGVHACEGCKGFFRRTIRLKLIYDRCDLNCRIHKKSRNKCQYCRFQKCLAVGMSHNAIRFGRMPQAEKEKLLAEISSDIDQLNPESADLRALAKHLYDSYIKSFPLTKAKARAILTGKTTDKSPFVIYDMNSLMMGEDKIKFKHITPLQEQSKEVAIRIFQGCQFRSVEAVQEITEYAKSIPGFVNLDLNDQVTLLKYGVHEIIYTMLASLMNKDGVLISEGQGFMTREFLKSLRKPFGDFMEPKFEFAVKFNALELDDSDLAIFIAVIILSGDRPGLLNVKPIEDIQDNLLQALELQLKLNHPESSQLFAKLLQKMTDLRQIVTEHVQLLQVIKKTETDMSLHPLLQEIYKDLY
Description: In Method 1, a reporter plasmid containing three copies of the PPAR response element (pPPREx3-TKLuc) as illustrated in FIG. 19A and as previously described in Kim et al, Toxicological Sciences, 85, (2005), pp. 585-593, was transfected into SHEP-1 cancer cells. This system directly measures activation of endogenous PPAR via transcriptional activation of the luciferase reporter gene as a result of PPARγ binding to the PPAR response element (PPRE). To determine whether PPARγ receptor is activated by C19H24N3O5S5Pr, the SHEP-1 cancer cells was transiently transfected with either short-hairpin RNA plasmid targeting PPAR-γ protein or short hairpin RNA negative control. The cells were exposed to varying doses (5 uM, 10 uM) of C19H24N3O5S5Pr for 18 hr.

PARP = details: SHEP-1 cells, 5 μM and 10 μM, 24 hrs
SHEP1 cells = details: mPPARg PCMX versus empty vector, 0 to 5 uM
Protocol: (§1) To detect breast cancer cell death via cell viability assay, the mitochondrial activity, as an index of cell viability, was measured using the MTT method (Mosmann, T. J Immunol Methods, 1983; 65: 55-63). Briefly, cells were treated in triplicates in 96-well plate. After completion of the experimental period, 20 μl of MTT reagent (5 mg/ml) was added per well of culture (containing 100 μl treatment media). The reaction was allowed to proceed for 4 to 6 h at 37° C. SDS (10%) was then added (200 μl/well) overnight and the absorption at 595 nm measured.

[5] = test system: SHEP1 and SHSY5Y neuroblastoma cells; details: 24 hours
Protocol: as §1

[6] = test system: MDA-MB-231 breast cancer cells; details: high PPARγ expressing cells, 24 hours
Protocol: as §1

T47D breast cancer cells = details: low PPARγ expressing cells, 24 hours
Protocol: as §1

[7] = test system: AIF (apoptosis inducing factor); details: SHEP-1 cells, 5 μM and 10 μM, 24 hr
Protocol: Different concentrations (5 μM and 10 μM) of C19H24N3O5S5Pr (indicated as “Pr-MPO”) were administered into SHEP-1 cancer cells. The detection of AIF in the cytosol and nucleus fractions was determined by Western Blot analysis at 18 hr and 24 hr of treatment with C19H24N3O5S5Pr.

## CS(C)=O.CS(C)=O.[O-][n+]1ccccc1[S-].[O-][n+]1ccccc1[S-].[O-][n+]1ccccc1[S-].[Pr+3] [C19H24N3O5S5Pr, praseodymium (2-mercaptopyridine N-oxide)(dimethylsulfoxide)]
PTEN, RhoB, MnSOD [1]
  MnSOD protein expression: downregulated
  PTEN protein expression: upregulated
  RhoB protein expression: upregulated
PPARγ [2]
  PPARγ activation on overexpression of DNA-binding mutant PPARγ: significantly reduced the ability of C19H24N3O5S5Pr to activate PPARγ
PTEN, RhoB, MnSOD [3]
  PTEN, RhoB and MnSOD protein expression in tumors: regulated
PPARγ [4]
  luciferase activity upon silencing of PPARγ protein: luciferase activity was abrogated
PARP
  PARP cleavage (80 kDa fragment): PARP cleavage
SHEP1 cells
  cell viability on overexpression of wild type PPARγ: greater decrease in cell viability
[5]
  cell viability (MTT), SHEP1 versus SHSY5Y cells: has a greater growth of SHEP1 cells compared to SHSY5Y cells
[6]
  cell viability (MTT): inhibits growth
T47D breast cancer cells
  cell viability (MTT): remained viable
[7]
  AIF translocation: AIF was translocated into the nucleus
